Patent publication US6849426B2, “Methods and reagents for detecting endotoxin” (Cambrex Bio Science Walkersville, Inc., priority 2001, dated 2005)

Experiments:
Assay type in all cases: biochemical
[1] = molecular target: T1, recombinant Factor C (rFC) (Carcinoscorpius rotundicauda, UniProt Q26422); assay: recombinant Factor C (rFC) assay with different detergents; settings: for Detergent concentration range for rFC inhibition / Detergent concentration range for rFC enhancing: 1 EU/ml EC-6, DPR-coumarin substrate, 38° C., data after 30 minutes; for enhancing concentration range (narrow or wide): rFC assay
T1 construct: made in house; host or cells: Sf9 insect cells, baculovirus
T1 sequence (Q26422 26-1019): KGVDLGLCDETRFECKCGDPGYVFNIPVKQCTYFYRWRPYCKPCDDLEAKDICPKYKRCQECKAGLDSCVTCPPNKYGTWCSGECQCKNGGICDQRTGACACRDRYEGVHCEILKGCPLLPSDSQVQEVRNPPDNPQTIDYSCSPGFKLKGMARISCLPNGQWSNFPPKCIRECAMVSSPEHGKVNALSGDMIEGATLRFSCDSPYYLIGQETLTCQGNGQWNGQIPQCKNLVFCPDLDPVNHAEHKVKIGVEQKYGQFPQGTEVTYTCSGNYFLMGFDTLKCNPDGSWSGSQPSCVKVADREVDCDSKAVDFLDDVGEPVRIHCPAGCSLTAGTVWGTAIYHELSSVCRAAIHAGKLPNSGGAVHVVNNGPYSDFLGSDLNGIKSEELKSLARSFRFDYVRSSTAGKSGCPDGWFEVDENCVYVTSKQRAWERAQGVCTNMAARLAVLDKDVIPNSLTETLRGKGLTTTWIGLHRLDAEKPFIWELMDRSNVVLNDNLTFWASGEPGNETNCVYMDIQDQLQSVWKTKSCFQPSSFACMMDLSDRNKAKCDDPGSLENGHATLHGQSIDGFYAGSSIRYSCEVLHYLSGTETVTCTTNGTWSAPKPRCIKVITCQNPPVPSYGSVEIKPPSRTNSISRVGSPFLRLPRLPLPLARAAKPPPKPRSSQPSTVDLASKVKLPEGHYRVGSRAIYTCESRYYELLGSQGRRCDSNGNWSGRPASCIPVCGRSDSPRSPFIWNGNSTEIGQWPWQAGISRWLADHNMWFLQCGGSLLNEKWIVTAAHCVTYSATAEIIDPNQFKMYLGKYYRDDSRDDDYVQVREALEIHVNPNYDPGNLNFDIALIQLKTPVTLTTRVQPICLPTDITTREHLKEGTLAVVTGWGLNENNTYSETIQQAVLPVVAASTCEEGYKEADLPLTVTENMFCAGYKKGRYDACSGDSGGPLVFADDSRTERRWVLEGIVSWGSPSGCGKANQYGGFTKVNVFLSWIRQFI
Procedure: The recombinant Factor C (rFC) assay was carried out using 20 μl of each detergent (˜10× of final concentration), 150 μl of 1 EU/ml EC-6, 10 μl of rFC supernatant 031901I, 20 μl of 300 mM Tris, pH 8.0, and 20 μl of 0.55 mM DPR-coumarin substrate. The results of the assay were read at 38° C. using a Cytofluor reader set at 390/440 nm, 5 minutes per cycle, for 1 hour. The data were graphed after 30 minutes.

[2] = molecular target: T2, recombinant Carcinoscorpius rotundicauda Factor C (Carcinoscorpius rotundicauda, UniProt Q26422); assay: two-step and one-step endotoxin assay (Examples 1 and 13); settings: assay of Examples 1 and 13
T2 construct: made in house; host or cells: Sf9 insect cells, baculovirus (pFASTBAC1 bacmid); culture supernatant used without purification
T2 sequence (Q26422 26-1019): T1 sequence (Q26422 26-1019)
Procedure: Endotoxin was pre-incubated with culture medium containing recombinant Carcinoscorpius rotundicauda Factor C obtained from recombinant Factor C-producing Sf9 cells for 1 hour in assay buffer (30 mM Tris, pH 8.0, 30 mM NaCl, 0.3% lactose, and 0.0025% Zwittergent 3-14). The substrate N-t-Boc-Asp(Obzl)-Pro-Arg-7-Amido-4-methyl coumarin (DPR-coumarin) was added to the mixture to a final concentration of […]. The fluorescence generated from the cleavage of the substrate by activated Factor C was measured after 15-20 minutes. Results of a similar assay carried out using the substrate N-t-Boc-Val-Pro-Arg-7-Amido-4-methyl coumarin at a final concentration of 100 mM are shown in FIG. 5.
A one-step endotoxin assay can be carried out in a 96-well plate, using 100 μl each of blank and endotoxin standards. […] The plate is incubated at 37° C. for 1 hour. Excitation and emission are read at 390 and 440 nm, respectively, in a fluorescence microplate reader.

Recombinant Factor C = molecular target: T3, Recombinant Factor C (Carcinoscorpius rotundicauda, UniProt Q26422); assay: one-step, 1-hour endpoint endotoxin assay with or without surfactant; settings: assay buffer with or without 0.0125% Zwittergent; endotoxin 055:B5 0.01-10 EU/ml; FIG. 7
T3 construct: made in house; host or cells: Sf9 insect cells, baculovirus
T3 sequence (Q26422 26-1019): T1 sequence (Q26422 26-1019)
Procedure: A one-step, 1-hour endpoint assay was performed. Endotoxin 055:B5, 0.01, 0.1, 1, and 10 EU/ml were used for the standard curve. Blank and endotoxin standards (100 μl each) were added to a 96-well plate. […] This mixture was added into each blank and endotoxin standard. The fluorescence was recorded at time zero and time 1 hour. The difference in fluorescences (delta fluorescence) were normalized with the blank. Normalized delta fluorescence was then graphed against endotoxin concentration in a log-log scale. Each data point is the result of duplicate assays.

[3] = test system: purified Limulus factor C; assay: Limulus Factor C activity at different Zwittergent concentrations; settings: FIG. 6; compared with recombinant Factor C assay
Procedure: The enhancing/inhibiting effect of Zwittergent 3-14 was also tested using purified Limulus factor C (FIG. 6).
We isolated the factor C from Limulus and generated antisera against the protein. The Limulus lysate was first separated with a S-100 gel filtration followed by cation-ion exchange column. The fractions were assayed for factor C activity using the N-t-BOC-Val-Pro-Arg 7-Amido-4-methyl coumarin substrate. The Limulus factor C was purified 73 fold with 80% homogeneity as determined by enzyme assay and SDS-PAGE. The molecular weight of Limulus factor C was 117 kDa by SDS-PAGE under non-reducing conditions. […] A specific polyclonal antibody against the Limulus factor C was generated in rabbits. The anti-factor C purified IgG inhibited the activation of factor C by LPS but had no effect on the protease activity once the factor C was activated by LPS.

Compound | Detergent concentration range for rFC inhibition [1] | enhancing concentration range (narrow or wide) [1] | optimal concentration of the surfactant [2] [%] | increase of endotoxin detection sensitivity when surfactant was included (Recombinant Factor C) [fold] | enhancing/inhibiting effect on purified Limulus factor C [3] | Detergent concentration range for rFC enhancing [1]
CCCCCCCCS[C@@H]1O[C@H](CO)[C@@H](O)[C@H](O)[C@H]1O [OTG, octyl-beta-D-thioglucoside] | >=0.5% | narrow | – | – | – | –
CCCCCCCCCCCCOS(=O)(=O)[O-].[Na+] [SDS] | >=0.0004% | – | – | – | – | –
CCCCCCCCCCCCCC[N+](C)(C)CCCS(=O)(=O)[O-] [Zwittergent 3-14, N-tetradecyl-N,N-dimethyl-3-ammonio-1-propanesulfonate] | >=0.004% | narrow | 0.0025 | 10 | A similar enhancing/inhibiting effect was observed | –
Triton X-100 | >=0.008% | narrow | – | – | – | –
polyoxyethylene (20) sorbitan monolaurate [Tween 20] | >0.5% | wide | – | – | – | 0.001-0.5%
polyoxyethylene (20) sorbitan monooleate [Tween 80] | >0.25% | wide | – | – | – | 0.001-0.25%
